# Reference: patent publication US10174015B2, “Substituted heterocyclic derivative, preparation method and use thereof” (Xiamen University, priority 2014, dated 2019)
# Like-named read-outs stand apart in the source and are kept apart here.
# Experiments:
# [1] = test system: headache caused by nitroglycerin; test: Nitroglycerin-induced headache rat model; format: in vivo, Wistar rats; settings: rats, 10 mg/kg i.p. 1 h before nitroglycerin (FIG. 5)
# Procedure: In the Experimental example, compounds to be evaluated or compounds to be tested or test compounds used are the Compounds 1-46 prepared in the Examples according to the invention. In the Experimental example, all the agents for injection, including compounds to be evaluated or compounds to be tested or test compounds, and positive control drug, were dissolved in a mixed solvent of PEG400:Tween 80:normal saline (at a volume ratio of 5:5:90), at a concentration of 5 mg/mL.
# Nitroglycerin-induced headache rat model was a common model for studying inflammatory pain medically. The model was used in the invention to evaluate the therapeutic effects of the compounds on headache. The model can represent mixed pain including, but not only limited to: migraine, cluster headache, tension headache syndrome, prosopodynia, lumbodynia, shoulder pain, burning mouth syndrome, and complex regional pain syndrome.
# Experimental Wistar rats with a body weight of about 250 g for each (purchased from Shanghai SLAC Laboratory Animal Co., Ltd) were in an experimental environment with free access to food and water for 1 week. The rats were fasted for 24 h before administration. The compound to be evaluated (10 mg/kg) was intraperitoneally injected to the rat at 1 h before the administration of nitroglycerin, wherein the positive control drug was indomethacin and the blank control was normal saline. Nitroglycerin (10 mg/kg, nitroglycerin dissolved in normal saline, at a concentration of 5%) was injected at epidermis of the rat neck, and the rats were then placed in the observation cage. A video camera was used to record the behavior of the rats in the following 60 min. Pain-related behavior was analyzed statistically based on the times that the rat scratched its head in said period.
# RAW264.7 cells = test: Assay on cytotoxicity (CCK8); format: cell-based; settings: RAW264.7 cells, 3, 10, 30, 100 μM, 24 h and 48 h; compound 9 except at 100 μM
# Procedure: RAW264.7 cells in good growing state (purchased from American Type Culture Collection, ATCC, Beijing), at a density of about 80%-90%, were scraped off with a cell scraper to prepare a cell suspension. After counting, the cells were accurately seeded in a 96-well plate, at 100 μL per well, wherein the total number of cells retained the same, at about 20000 cells/well, and the same amount of culture medium (which was DMEM (Gibco, Shanghai) medium containing 10% fetal bovine serum (PAA), 1% penicillin-streptomycin (PAA)) was added. The 96-well plate was placed in an incubator to preincubate for 24 h (37° C., 5% CO2). The marginal wells of the plate were filled with an equal amount of PBS, but were not seeded with cells, so as to prevent evaporation of the culture medium in the experimental group. […] After incubating the plate in the incubator for a period of time (24 or 48 h), 10 μL CCK8 solution was added to each well, and then the plate was incubated in incubator for 1.5 h. the absorbance OD value was determined at 450 nm by microplate reader, and the OD value was proportional to the number of living cells. […]
# zebrafish embryos = format: in vivo; settings: for Death number (72 h): n = 30; for Body length (72 h) / Hatching number (72 h) / Heartbeat (72 h) / Unhatching number (72 h) / hatching rate: zebrafish, in vivo, 72 h
# Procedure: Fertilized eggs (donated by Zebrafish Research Group, School of Life Sciences, Xiamen University) were incubated in freshly prepared zebrafish embryo culture medium, which was replaced by fresh culture medium every day, and cultured in 28.5° C. incubator. Pure water was placed in the incubator to ensure a certain humidity in the culture environment. The formulation for zebrafish embryo culture medium was following: 5 mM NaCl, 0.17 mM KCl, 0.33 mM CaCl2, 0.33 mM MgSO4, 10-5% methylene blue. The culture medium was prepared with pure water. For example, NaCl: 292.2 mg, KCl: 12.68 mg, CaCl2: 36.63 mg, MgSO4: 39.72 mg, and methylene blue: 0.1 μL were needed for the preparation of 1 L culture medium.
# 7 Groups were set for each test compound, including 5 experimental groups relating to the test compound at different concentrations (solutions containing the test compound at different concentrations were prepared by using zebrafish embryo culture medium, wherein the concentrations were 10 mg/L, 3 mg/L, 1 mg/L, 0.3 mg/L, 0.1 mg/L), 1 solvent control group (DMSO) and 1 blank control group. The positive control drug was OTC analgesic ibuprofen at concentrations as described above. A 96-well cell culture plate was used to perform the experiment, three wells in parallel were used for each experimental group, and 10 fish eggs were contained in each well.
# Culture medium containing a test compound was prepared, and the culture medium was added to a 96-well plate in advance, and each fertilized egg (by reference to the experimental method in OECD No. 212 document, fertilized eggs, which developed normally within 2 h after fertilization, were selected and subjected to exposure. Transparent fish eggs visible to naked eye were normally fertilized, while white fish eggs were dead and discarded. After the selection, the normally fertilized eggs had begun to divide as observed under microscope) was then independently placed in a different well, and cultured in the culture medium containing a test compound at a different concentration. Embryo development status at different stages was observed and photographed with invert microscope, including: […]
# II. Hatching number and death number were counted at 72 h after fertilization, and hatching rate and mortality were calculated; […]
# V. Heartbeat of young fishes (times/min) was recorded at 72 h and 96 h after fertilization (Recording method: heartbeat of young fishes could be clearly observed under microscope, and the number of heartbeats was recorded for 30 s).
SMILES,effect of inhibiting nitroglycerin-induced headache [1],effect on cell viability (RAW264.7 cells),Death number (72 h) (zebrafish embryos; 0.1 mg/L),Death number (72 h) (zebrafish embryos; 0.3 mg/L),Death number (72 h) (zebrafish embryos; 1 mg/L),Death number (72 h) (zebrafish embryos; 3 mg/L),Death number (72 h) (zebrafish embryos; 10 mg/L),Body length (72 h) (zebrafish embryos; 0.1 mg/L) [mm],Hatching number (72 h) (zebrafish embryos; 0.1 mg/L),Heartbeat (72 h) (zebrafish embryos; 0.1 mg/L) [per min],Unhatching number (72 h) (zebrafish embryos; 0.1 mg/L),Body length (72 h) (zebrafish embryos; 0.3 mg/L) [mm],Hatching number (72 h) (zebrafish embryos; 0.3 mg/L),Heartbeat (72 h) (zebrafish embryos; 0.3 mg/L) [per min],Unhatching number (72 h) (zebrafish embryos; 0.3 mg/L),Body length (72 h) (zebrafish embryos; 1 mg/L) [mm],Hatching number (72 h) (zebrafish embryos; 1 mg/L),Heartbeat (72 h) (zebrafish embryos; 1 mg/L) [per min],Unhatching number (72 h) (zebrafish embryos; 1 mg/L),hatching rate (zebrafish embryos; 1 mg/L) [%],other results
"O=C(CCCCCc1ccccc1)N1CCOC1=O [Compound 2, Phenylhexanoyl Oxazolidinone]",significant effects of inhibiting nitroglycerin-induced headache in rats,no effect on cell viability,3,2,1,30,30,3.86 ± 0.05,27,130 ± 3.00,0,3.87 ± 0.05,28,130 ± 3.58,0,3.85 ± 0.06,29,128 ± 3.29,0,96.67,Hatching number (72 h) (zebrafish embryos; 3 mg/L): 0; Unhatching number (72 h) (zebrafish embryos; 3 mg/L): 0; Hatching number (72 h) (zebrafish embryos; 10 mg/L): 0; Unhatching number (72 h) (zebrafish embryos; 10 mg/L): 0
"O=C(CCCCCc1cccc(Cl)c1)N1CCOC1=O [Compound 9, 3-Chlorophenylhexanoyl Oxazolidinone]",significant effects of inhibiting nitroglycerin-induced headache in rats,no effect on cell viability,2,2,3,30,30,3.90 ± 0.05,28,129 ± 2.73,0,3.86 ± 0.03,28,130 ± 3.22,0,3.88 ± 0.04,27,130 ± 2.76,0,90,Hatching number (72 h) (zebrafish embryos; 3 mg/L): 0; Unhatching number (72 h) (zebrafish embryos; 3 mg/L): 0; Hatching number (72 h) (zebrafish embryos; 10 mg/L): 0; Unhatching number (72 h) (zebrafish embryos; 10 mg/L): 0
